From ChEMBL document CHEMBL4251562, “Discovery of new potent molecular entities able to inhibit mPGES-1” (Eur J Med Chem, 2018)
Activity calls are given as the source filed them. No cut-off for these calls is given here.

Molecular target: T1, Prostaglandin G/H synthase 2 (Homo sapiens) (UniProt P35354)
T1 sequence (whole entry): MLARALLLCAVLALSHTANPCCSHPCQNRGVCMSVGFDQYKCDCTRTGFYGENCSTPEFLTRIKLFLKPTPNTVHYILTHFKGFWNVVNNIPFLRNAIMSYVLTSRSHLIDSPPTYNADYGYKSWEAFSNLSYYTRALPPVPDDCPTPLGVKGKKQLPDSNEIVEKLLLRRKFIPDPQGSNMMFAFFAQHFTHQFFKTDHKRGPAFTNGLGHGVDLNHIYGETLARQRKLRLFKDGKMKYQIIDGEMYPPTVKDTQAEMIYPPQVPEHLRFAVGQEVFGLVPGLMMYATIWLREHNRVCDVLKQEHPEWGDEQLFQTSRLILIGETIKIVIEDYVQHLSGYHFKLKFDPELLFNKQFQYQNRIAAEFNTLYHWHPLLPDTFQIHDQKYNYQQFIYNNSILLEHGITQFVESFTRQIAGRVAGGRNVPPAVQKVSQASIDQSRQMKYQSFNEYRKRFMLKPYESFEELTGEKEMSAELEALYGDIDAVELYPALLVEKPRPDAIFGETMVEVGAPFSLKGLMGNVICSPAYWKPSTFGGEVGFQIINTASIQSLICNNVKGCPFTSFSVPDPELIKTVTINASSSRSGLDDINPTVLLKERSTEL
Test: Inhibition of recombinant human COX2 at 10 uM using arachidonic acid as substrate preincubated for 5 mins followed by substrate addition and measured after 5 mins by UPLC-MS/MS analysis

Structure (SMILES) | inhibition
O=[N+]([O-])c1cc([N+](=O)[O-])c(-c2ccc(COc3cccc4ccccc34)cc2)cc1F | inactive
O=[N+]([O-])c1cc([N+](=O)[O-])c(-c2ccc(COc3ccccc3)cc2)cc1F | inactive
O=[N+]([O-])c1cc([N+](=O)[O-])c(-c2ccc(COc3cccc(C(F)(F)F)c3)cc2)cc1F | inactive
COCCc1ccc(OCc2ccc(-c3cc(F)c([N+](=O)[O-])cc3[N+](=O)[O-])cc2)cc1 | inactive
O=[N+]([O-])c1cc([N+](=O)[O-])c(-c2ccccc2COc2cccc(C(F)(F)F)c2)cc1F | inactive

Molecular target: T2, Prostaglandin E synthase (Homo sapiens) (UniProt O14684)
T2 sequence (whole entry): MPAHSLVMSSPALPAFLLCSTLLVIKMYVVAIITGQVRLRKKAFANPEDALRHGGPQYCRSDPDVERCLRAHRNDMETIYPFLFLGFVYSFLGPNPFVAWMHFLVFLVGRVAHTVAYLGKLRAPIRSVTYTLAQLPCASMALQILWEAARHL
Test: Inhibition of mPGES1 in IL-1beta-stimulated human A549 cell microsomes assessed as remaining activity at 10 uM using PGH2 as substrate by measuring reduction in PGE2 production preincubated for 15 mins followed by substrate addition and measured after 1 min by RP-HPLC analysis

Activity | Structure (SMILES)
9.5% | O=[N+]([O-])c1cc([N+](=O)[O-])c(-c2ccc(COc3ccccc3)cc2)cc1F
inactive | COCCc1ccc(OCc2ccc(-c3ccc(C(F)(F)F)cc3[N+](=O)[O-])cc2)cc1
inactive | O=[N+]([O-])c1cc(C(F)(F)F)ccc1-c1ccc(COc2cccc3ccccc23)cc1
inactive | O=[N+]([O-])c1cc(C(F)(F)F)ccc1-c1ccccc1COc1cccc(C(F)(F)F)c1
inactive | O=[N+]([O-])c1cc(C(F)(F)F)ccc1-c1ccc(COc2ccccc2)cc1
inactive | O=[N+]([O-])c1cc(C(F)(F)F)ccc1-c1ccc(COc2cccc(C(F)(F)F)c2)cc1

Structure (SMILES) | Activity
O=[N+]([O-])c1cc([N+](=O)[O-])c(-c2ccc(COc3cccc4ccccc34)cc2)cc1F | 9.1%
O=[N+]([O-])c1cc([N+](=O)[O-])c(-c2ccc(COc3cccc(C(F)(F)F)c3)cc2)cc1F | 12.1%
COCCc1ccc(OCc2ccc(-c3cc(F)c([N+](=O)[O-])cc3[N+](=O)[O-])cc2)cc1 | 11.8%
O=[N+]([O-])c1cc([N+](=O)[O-])c(-c2ccccc2COc2cccc(C(F)(F)F)c2)cc1F | 7%

Molecular target: T3, Prostaglandin G/H synthase 1 (Ovis aries, UniProt P05979)
T3 sequence (P05979 whole entry): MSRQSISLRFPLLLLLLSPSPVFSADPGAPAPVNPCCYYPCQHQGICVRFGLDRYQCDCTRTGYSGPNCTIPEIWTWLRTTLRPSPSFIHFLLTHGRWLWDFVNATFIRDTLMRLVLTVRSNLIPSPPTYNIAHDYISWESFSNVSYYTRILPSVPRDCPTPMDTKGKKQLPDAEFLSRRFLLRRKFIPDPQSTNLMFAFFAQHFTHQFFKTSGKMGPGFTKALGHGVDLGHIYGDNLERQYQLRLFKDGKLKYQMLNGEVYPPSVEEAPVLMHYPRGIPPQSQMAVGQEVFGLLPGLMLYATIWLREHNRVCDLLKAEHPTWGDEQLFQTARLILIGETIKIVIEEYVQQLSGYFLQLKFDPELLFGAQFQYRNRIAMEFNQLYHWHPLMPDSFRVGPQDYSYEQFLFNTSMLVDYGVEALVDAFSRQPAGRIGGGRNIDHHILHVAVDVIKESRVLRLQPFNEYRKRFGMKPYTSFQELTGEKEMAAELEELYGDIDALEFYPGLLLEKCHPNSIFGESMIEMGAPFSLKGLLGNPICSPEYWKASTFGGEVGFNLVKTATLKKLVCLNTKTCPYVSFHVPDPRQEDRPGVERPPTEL
Test: Inhibition of ovine COX1 using arachidonic acid as substrate preincubated for 5 mins followed by substrate addition and measured after 5 mins by UPLC-MS/MS analysis

Structure (SMILES) | IC50 [nM]
O=[N+]([O-])c1cc([N+](=O)[O-])c(-c2ccccc2COc2cccc(C(F)(F)F)c2)cc1F | 3000

Molecular target: T4, Prostaglandin G/H synthase 1 (Ovis aries) (UniProt P05979)
T4 sequence (whole entry): T3 sequence (P05979 whole entry)
Test: Inhibition of ovine COX1 at 10 uM using arachidonic acid as substrate preincubated for 5 mins followed by substrate addition and measured after 5 mins by UPLC-MS/MS analysis

Structure (SMILES) | inhibition
O=[N+]([O-])c1cc([N+](=O)[O-])c(-c2ccc(COc3cccc4ccccc34)cc2)cc1F | inactive
O=[N+]([O-])c1cc([N+](=O)[O-])c(-c2ccc(COc3ccccc3)cc2)cc1F | inactive
O=[N+]([O-])c1cc([N+](=O)[O-])c(-c2ccc(COc3cccc(C(F)(F)F)c3)cc2)cc1F | inactive
COCCc1ccc(OCc2ccc(-c3cc(F)c([N+](=O)[O-])cc3[N+](=O)[O-])cc2)cc1 | inactive
O=[N+]([O-])c1cc([N+](=O)[O-])c(-c2ccccc2COc2cccc(C(F)(F)F)c2)cc1F | Active

Molecular target: T5, Prostaglandin E synthase (Homo sapiens, UniProt O14684)
T5 sequence (O14684 whole entry): T2 sequence (whole entry)
Test: Inhibition of mPGES1 in IL-1beta-stimulated human A549 cell microsomes using PGH2 as substrate assessed as reduction in PGE2 production preincubated for 15 mins followed by substrate addition and measured after 1 min by RP-HPLC analysis

IC50 [nM] | Structure (SMILES)
600 | O=[N+]([O-])c1cc([N+](=O)[O-])c(-c2ccc(COc3ccccc3)cc2)cc1F
> 10000 | COCCc1ccc(OCc2ccc(-c3ccc(C(F)(F)F)cc3[N+](=O)[O-])cc2)cc1
> 10000 | O=[N+]([O-])c1cc(C(F)(F)F)ccc1-c1ccc(COc2cccc3ccccc23)cc1
> 10000 | O=[N+]([O-])c1cc(C(F)(F)F)ccc1-c1ccccc1COc1cccc(C(F)(F)F)c1
> 10000 | O=[N+]([O-])c1cc(C(F)(F)F)ccc1-c1ccc(COc2ccccc2)cc1
> 10000 | O=[N+]([O-])c1cc(C(F)(F)F)ccc1-c1ccc(COc2cccc(C(F)(F)F)c2)cc1

Structure (SMILES) | IC50 [nM]
O=[N+]([O-])c1cc([N+](=O)[O-])c(-c2ccc(COc3cccc4ccccc34)cc2)cc1F | 180
O=[N+]([O-])c1cc([N+](=O)[O-])c(-c2ccc(COc3cccc(C(F)(F)F)c3)cc2)cc1F | 260
COCCc1ccc(OCc2ccc(-c3cc(F)c([N+](=O)[O-])cc3[N+](=O)[O-])cc2)cc1 | 1640
O=[N+]([O-])c1cc([N+](=O)[O-])c(-c2ccccc2COc2cccc(C(F)(F)F)c2)cc1F | 540
